One assay deals with plasma ALP (80-90% containing TNAP). In words: Inhibitory test of plasma TNAP activity in B6 mouse. In kind it is in vivo. As to conditions: oral, dose 0.3 mg/kg, average 0-6 h after administration. As for the experimental part: After blood sampling from the tail vein using a heparin-treated hematocrit capillary tube (EM Meister Hematocrit Capillary Tube, AS ONE Corp.) (as the sample before compound administration), each test compound suspended in a 0.5% methylcellulose solution (powder purchased from Wako Pure Chemical Industries, Ltd. was adjusted to 0.5% with Otsuka distilled water) was administered orally to the mouse. 1, 2, 4, 6, and 24 hours after the administration, blood was collected from the tail vein using a heparin-treated hematocrit capillary tube to obtain a plasma sample. The plasma sample was added to an assay buffer (1 M Tris, 1 M MgCl2, 20 mM ZnCl2, and water, pH 7.5), and the mixture was left standing for 5 minutes. Then, the absorbance at 405 nm was measured and used as a blank. The substrate pNPP was added to the plasma sample and incubated at room temperature for 180 minutes. Then, the absorbance (ABS: 405 nm) was measured using a microplate reader (model plus 384, Molecular Devices, LLC), and the concentration of produced p-nitrophenol was calculated. The blank was subtracted from all measurement values to calculate TNAP activity at each time point with the TNAP activity of the sample before compound administration defined as 100%. The pharmaceutical effect of the test compound was evaluated by the average inhibition of plasma ALP (80-90% containing TNAP) activity for 6 hours from 0 hour to 6 hour after the administration of the test compound. It was calculated according to the following expression: 100−((plasma ALP activity at 0 hr+plasma ALP activity at 1 hr)*½+(plasma ALP activity at 1 hr+plasma ALP activity at 2 hr)*½+(plasma ALP activity at 2 hr+plasma ALP activity at 4 hr)*2/2+(plasma ALP activity at 4 hr+plasma ALP activity at 6 hr)*2/2)/6 The results are shown in Table 2.
As for `O=C1c2cc([N-]S(=O)(=O)c3cc(Cl)ccc3OC(F)(F)F)cnc2OC[C@H]2C[C@@H](O)CN12.[K+]` [Example 38, Potassium {[5-chloro-2-(trifluoromethoxy)phenyl]sulfonyl}[(8R,9aR)-8-hydroxy-5-oxo-8,9,9a,10-tetrahydro-5H,7H-pyrido[3,2-f]pyrrolo[2,1-c][1,4]oxazepin-3-yl]azanide], the “Plasma ALP inhibition (6 h ave. inhibition %)” value was 65.5%. Take `O=C1c2cc([N-]S(=O)(=O)c3cc(Cl)ccc3OC(F)(F)F)cnc2OC[C@H]2[C@@H](O)CCN12.[K+]` [Example 43, Potassium {[5-chloro-2-(trifluoromethoxy)phenyl]sulfonyl}[(9S,9aS)-9-hydroxy-5-oxo-8,9,9a,10-tetrahydro-5H,7H-pyrido[3,2-f]pyrrolo[2,1-c][1,4]oxazepin-3-yl]azanide]: the “Plasma ALP inhibition (6 h ave. inhibition %)” value is on record as 65.5%.

For `O=C1c2cc([N-]S(=O)(=O)c3cc(Cl)ccc3OC(F)(F)F)cnc2OC[C@H]2C[C@H](O)CN12.[K+]` [Example 33, Potassium {[5-chloro-2-(trifluoromethoxy)phenyl]sulfonyl}[(8S,9aR)-8-hydroxy-5-oxo-8,9,9a,10-tetrahydro-5H,7H-pyrido[3,2-f]pyrrolo[2,1-c][1,4]oxazepin-3-yl]azanide], the “Plasma ALP inhibition (6 h ave. inhibition %)” value is given as 59.0%.

The same assay, now with this note: oral, dose 1 mg/kg, average 0-6 h after administration.
`CNC(=O)O[C@H]1C[C@@H]2COc3ncc([N-]S(=O)(=O)c4cc(Cl)ccc4OC)cc3C(=O)N2C1.[K+]` [Example 49, Potassium [(5-chloro-2-methoxyphenyl)sulfonyl]{(8S,9aR)-8-[(methylcarbamoyl)oxy]-5-oxo-8,9,9a,10-tetrahydro-5H,7H-pyrido[3,2-f]pyrrolo[2,1-c][1,4]oxazepin-3-yl}azanide]: the “Plasma ALP inhibition (6 h ave. inhibition %)” value came to 52.8%. Same read-out and setting: the result for `CCc1nnc2n1CCOc1ncc([N-]S(=O)(=O)c3cc(Cl)ccc3OC)cc1-2.[K+]` [Example 4, Potassium [(5-chloro-2-methoxyphenyl)sulfonyl](3-ethyl-5,6-dihydropyrido[3,2-f][1,2,4]triazolo[4,3-d][1,4]oxazepin-10-yl)azanide] reads 40.7%.

Take `COC(=O)N[C@@H]1C[C@@H]2COc3ncc([N-]S(=O)(=O)c4cc(Cl)ccc4OC)cc3C(=O)N2C1.[K+]` [Example 51, Potassium [(5-chloro-2-methoxyphenyl)sulfonyl]{(8R,9aR)-8-[(methoxycarbonyl)amino]-5-oxo-8,9,9a,10-tetrahydro-5H, 7H-pyrido[3,2-f]pyrrolo[2,1-c][1,4]oxazepin-3-yl}azanide]: the “Plasma ALP inhibition (6 h ave. inhibition %)” value is reported as 59.7%. Consider `CCOc1ccc(F)cc1S(=O)(=O)[N-]c1cnc2c(c1)CN1C(=O)COC[C@H]1CO2.[K+]` [Example 62, Potassium [(2-ethoxy-5-fluorophenyl)sulfonyl][(10aS)-7-oxo-7,8,10a,11-tetrahydro-5H,10H-[1,4]oxazino[3,4-c]pyrido[3,2-f][1,4]oxazepin-3-yl]azanide], for which the “Plasma ALP inhibition (6 h ave. inhibition %)” value came out at 76.0%. With `COc1ccc(Cl)cc1S(=O)(=O)[N-]c1cnc2c(c1)CN1C(=O)[C@@H](O)C[C@H]1CO2.[K+]` [Example 55, Potassium [(5-chloro-2-methoxyphenyl)sulfonyl][(8S,9aS)-8-hydroxy-7-oxo-8,9,9a,10-tetrahydro-5H,7H-pyrido[3,2-f]pyrrolo[2,1-c][1,4]oxazepin-3-yl]azanide], the “Plasma ALP inhibition (6 h ave. inhibition %)” value was determined as 65.7%.

The same assay, now with this note: oral, dose 3 mg/kg, average 0-6 h after administration.
For `CCOc1ccc(F)cc1S(=O)(=O)[N-]c1cnc2c(c1)-c1ccnn1[C@@H](C)CO2.[K+]` [Example 19, Potassium [(2-ethoxy-5-fluorophenyl)sulfonyl][(5S)-5-methyl-5,6-dihydropyrazolo[1,5-d]pyrido[3,2-f][1,4]oxazepin-10-yl]azanide], the “Plasma ALP inhibition (6 h ave. inhibition %)” value came out at 27.5%. With `CCOc1ncc(F)cc1S(=O)(=O)[N-]c1cnc2c(c1)-c1ccnn1[C@@H](C)CO2.[K+]` [Example 25, potassium [(2-ethoxy-5-fluoropyridin-3-yl)sulfonyl][(5S)-5-methyl-5,6-dihydropyrazolo[1,5-d]pyrido[3,2-f][1,4]oxazepin-10-yl]azanide], the “Plasma ALP inhibition (6 h ave. inhibition %)” value was determined as 55.5%.

For the compound `COc1ncc(Cl)cc1S(=O)(=O)[N-]c1cnc2c(c1)-c1ccnn1[C@@H](C)CO2.[K+]` [Example 22, potassium [(5-chloro-2-methoxypyridin-3-yl)sulfonyl][(5S)-5-methyl-5,6-dihydropyrazolo[1,5-d]pyrido[3,2-f][1,4]oxazepin-10-yl]azanide], the “Plasma ALP inhibition (6 h ave. inhibition %)” value turned out to be 28.4%. As to `COc1ccc(Cl)cc1S(=O)(=O)[N-]c1cnc2c(c1)-c1ccnn1CCO2.[K+]` [Example 8, Potassium [(5-chloro-2-methoxyphenyl)sulfonyl](5,6-dihydropyrazolo[1,5-d]pyrido[3,2-f][1,4]oxazepin-10-yl)azanide], the “Plasma ALP inhibition (6 h ave. inhibition %)” value was determined as 29.4%.

The values above are taken from patent publication US11046710B2, “Sulfonamide compounds” (DAIICHI SANKYO COMPANY, LIMITED, priority 2016, dated 2021).
